Measured values as given in patent US20120272343A1, “STROMAL INTERACTING MOLECULE KNOCKOUT MOUSE AND USES THEREOF” (IMMUNE DISEASE INSTITUTE, INC., priority 2007, published 2012).

Tested on: CRAC current (ICRAC)
Assay: Whole cell patch-clamp recordings of CRAC current in differentiated CD4+ T cells
Assay type: cell-based, mouse
Conditions: for increase in current amplitude following 2-APB application: thapsigargin-pretreated, 2-APB 40 μM, step to −100 mV
Procedure: CD4^+ T cells were cultured in non-polarizing conditions and harvested at day 5. Patch-clamp recordings were performed using an Axopatch 200 amplifier (Axon Instruments) interfaced to an ITC-18 input/output board (Instrutech) and an iMac G5 computer. Currents were filtered at 1 kHz with a 4-pole Bessel filter and sampled at 5 kHz. Recording electrodes were pulled from 100-μl pipettes, coated with Sylgard, and fire-polished to a final resistance of 2-5 MΩ. Stimulation and data acquisition and analysis were performed using in-house routines developed on the Igor Pro platform (Wavemetrics). All data were corrected for the liquid junction potential of the pipette solution relative to Ringer's in the bath (10 mV) and for leak currents collected in 20 mM [Ca^2+]o+25 μM La^3+. The standard extracellular Ringer solution contained (in mM): 130 NaCl, 4.5 KCl, 20 CaCl2, 1 MgCl2, 10 D-glucose, and 5 Na-Hepes (pH 7.4). In some experiments, 2 mM CaCl2 was used in the standard extracellular solution and the NaCl concentration was raised to 150 mM. The standard divalent-free (DVF) Ringer solutions contained (in mM) 150 NaCl, 10 mM tetraacetic acid, 1 mM EDTA and 10 mM Hepes (pH 7.4). 25 nM charybdotoxin (Sigma) was added to all extracellular solutions to eliminate contamination from Kv1.3 channels. […] Averaged results are presented as the mean value±s.e.m. Curve fitting was done by least-squares methods using built-in functions in Igor Pro 5.0. The permeability of Cs^+ relative to that of Na^+ was calculated from the bionic reversal potential using the relation:

NCCOB(c1ccccc1)c1ccccc1 [2-APB, 2-Aminoethoxydiphenyl borate] was tested, and the “increase in current amplitude following 2-APB application” value (STIM2-deficient T cells, n=5) was 30±7% and the “increase in current amplitude following 2-APB application” value (control T cells, n=4) was 26±6%.
In the case of [Ca+2] [Ca^2+], the “block of Na+ CRAC currents” value (wild-type mouse T cells, 20 μM Ca2+) is reported as roughly 50%.
